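96-well plates; 48 h exposure; 5 concentrations. Endpoints by linear interpolation between flanking doses. Not reached: highest tested concentration assigned. TGI marks complete inhibition of growth.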
How the values were obtained:
Test in all cases: DTP human tumour cell line panel, 48 h
786-0 renal = tested on: 786-0 renal
A498 renal = tested on: A498 renal
A549 NSCLC = tested on: A549 NSCLC
ACHN renal = tested on: ACHN renal
BT-549 breast = tested on: BT-549 breast
CAKI-1 renal = tested on: CAKI-1 renal
CCRF-CEM leukemia = tested on: CCRF-CEM leukemia
COLO 205 colon = tested on: COLO 205 colon
DMS 114 small cell lung = tested on: DMS 114 small cell lung
DMS 273 small cell lung = tested on: DMS 273 small cell lung
DU-145 prostate = tested on: DU-145 prostate
EKVX NSCLC = tested on: EKVX NSCLC
HCC-2998 colon = tested on: HCC-2998 colon
HCT-116 colon = tested on: HCT-116 colon
HCT-15 colon = tested on: HCT-15 colon
HL-60(TB) leukemia = tested on: HL-60(TB) leukemia
HOP-18 NSCLC = tested on: HOP-18 NSCLC
HOP-62 NSCLC = tested on: HOP-62 NSCLC
HOP-92 NSCLC = tested on: HOP-92 NSCLC
HS 578T breast = tested on: HS 578T breast
HT29 colon = tested on: HT29 colon
IGROV1 ovarian = tested on: IGROV1 ovarian
K-562 leukemia = tested on: K-562 leukemia
KM12 colon = tested on: KM12 colon
KM20L2 colon = tested on: KM20L2 colon
LOX IMVI melanoma = tested on: LOX IMVI melanoma
LXFL 529 NSCLC = tested on: LXFL 529 NSCLC
M14 melanoma = tested on: M14 melanoma
M19-MEL melanoma = tested on: M19-MEL melanoma
MALME-3M melanoma = tested on: MALME-3M melanoma
MCF7 breast = tested on: MCF7 breast
MDA-MB-231 breast = tested on: MDA-MB-231 breast
MDA-MB-435 = tested on: MDA-MB-435
MDA-N = tested on: MDA-N
MOLT-4 leukemia = tested on: MOLT-4 leukemia
NCI-H226 lung = tested on: NCI-H226 lung
NCI-H23 lung = tested on: NCI-H23 lung
NCI-H460 lung = tested on: NCI-H460 lung
NCI-H522 lung = tested on: NCI-H522 lung
NCI/ADR-RES ovarian = tested on: NCI/ADR-RES ovarian
OVCAR-3 ovarian = tested on: OVCAR-3 ovarian
OVCAR-4 ovarian = tested on: OVCAR-4 ovarian
OVCAR-5 ovarian = tested on: OVCAR-5 ovarian
OVCAR-8 ovarian = tested on: OVCAR-8 ovarian
PC-3 prostate = tested on: PC-3 prostate
RPMI-8226 leukemia = tested on: RPMI-8226 leukemia
RXF 393 renal = tested on: RXF 393 renal
RXF-631 renal = tested on: RXF-631 renal
SF-268 CNS = tested on: SF-268 CNS
SF-295 CNS = tested on: SF-295 CNS
SF-539 CNS = tested on: SF-539 CNS
SK-MEL-2 melanoma = tested on: SK-MEL-2 melanoma
SK-MEL-28 melanoma = tested on: SK-MEL-28 melanoma
SK-MEL-5 melanoma = tested on: SK-MEL-5 melanoma
SK-OV-3 ovarian = tested on: SK-OV-3 ovarian
SN12C renal = tested on: SN12C renal
SNB-19 CNS = tested on: SNB-19 CNS
SNB-75 CNS = tested on: SNB-75 CNS
SR leukemia = tested on: SR leukemia
SW-620 colon = tested on: SW-620 colon
T-47D breast = tested on: T-47D breast
TK-10 renal = tested on: TK-10 renal
U251 CNS = tested on: U251 CNS
UACC-257 melanoma = tested on: UACC-257 melanoma
UACC-62 melanoma = tested on: UACC-62 melanoma
UO-31 renal = tested on: UO-31 renal
XF 498 CNS = tested on: XF 498 CNS
DLD-1 colon = tested on: DLD-1 colon
SNB-78 CNS = tested on: SNB-78 CNS

## COc1cc(Nc2nc3c(N)cc(C(F)(F)F)cc3nc2-c2ccccc2)cc(OC)c1OC
786-0 renal
  TGI: 74.4 µM
A498 renal
  TGI: 7.36 µM
A549 NSCLC
  TGI: > 100 µM
ACHN renal
  TGI: > 100 µM
BT-549 breast
  TGI: > 83.5 µM
CAKI-1 renal
  TGI: > 100 µM
CCRF-CEM leukemia
  TGI: > 100 µM
COLO 205 colon
  TGI: > 100 µM
DMS 114 small cell lung
  TGI: > 100 µM
DMS 273 small cell lung
  TGI: > 100 µM
DU-145 prostate
  TGI: > 100 µM
EKVX NSCLC
  TGI: > 100 µM
HCC-2998 colon
  TGI: > 100 µM
HCT-116 colon
  TGI: > 100 µM
HCT-15 colon
  TGI: > 100 µM
HL-60(TB) leukemia
  TGI: > 100 µM
HOP-18 NSCLC
  TGI: > 81 µM
HOP-62 NSCLC
  TGI: > 86.1 µM
HOP-92 NSCLC
  TGI: 16.7 µM
HS 578T breast
  TGI: > 83.6 µM
HT29 colon
  TGI: > 100 µM
IGROV1 ovarian
  TGI: > 100 µM
K-562 leukemia
  TGI: > 100 µM
KM12 colon
  TGI: > 100 µM
KM20L2 colon
  TGI: 99.9 µM
LOX IMVI melanoma
  TGI: > 100 µM
LXFL 529 NSCLC
  TGI: > 100 µM
M14 melanoma
  TGI: > 100 µM
M19-MEL melanoma
  TGI: > 100 µM
MALME-3M melanoma
  TGI: 75.9 µM
MCF7 breast
  TGI: > 100 µM
MDA-MB-231 breast
  TGI: > 95.5 µM
MDA-MB-435
  TGI: > 100 µM
MDA-N
  TGI: > 100 µM
MOLT-4 leukemia
  TGI: > 100 µM
NCI-H226 lung
  TGI: > 88.5 µM
NCI-H23 lung
  TGI: > 100 µM
NCI-H460 lung
  TGI: > 100 µM
NCI-H522 lung
  TGI: > 92 µM
NCI/ADR-RES ovarian
  TGI: > 100 µM
OVCAR-3 ovarian
  TGI: > 100 µM
OVCAR-4 ovarian
  TGI: 58.8 µM
OVCAR-5 ovarian
  TGI: > 100 µM
OVCAR-8 ovarian
  TGI: > 100 µM
PC-3 prostate
  TGI: > 89.4 µM
RPMI-8226 leukemia
  TGI: > 100 µM
RXF 393 renal
  TGI: 36.2 µM
RXF-631 renal
  TGI: > 85.2 µM
SF-268 CNS
  TGI: > 100 µM
SF-295 CNS
  TGI: 53.3 µM
SF-539 CNS
  TGI: > 74 µM
SK-MEL-2 melanoma
  TGI: > 100 µM
SK-MEL-28 melanoma
  TGI: > 100 µM
SK-MEL-5 melanoma
  TGI: 83 µM
SK-OV-3 ovarian
  TGI: > 92.2 µM
SN12C renal
  TGI: > 100 µM
SNB-19 CNS
  TGI: > 91.5 µM
SNB-75 CNS
  TGI: 53.8 µM
SR leukemia
  TGI: > 100 µM
SW-620 colon
  TGI: > 100 µM
T-47D breast
  TGI: > 83 µM
TK-10 renal
  TGI: > 95.4 µM
U251 CNS
  TGI: > 89.2 µM
UACC-257 melanoma
  TGI: > 100 µM
UACC-62 melanoma
  TGI: > 92.3 µM
UO-31 renal
  TGI: > 100 µM
XF 498 CNS
  TGI: 47.9 µM

## COC(=O)C(C(=O)C(=O)Nc1nc(=S)[nH][nH]1)c1csc(N)n1 (centres undefined)
786-0 renal
  TGI: > 100 µM
A498 renal
  TGI: > 100 µM
A549 NSCLC
  TGI: > 100 µM
ACHN renal
  TGI: > 100 µM
CAKI-1 renal
  TGI: > 100 µM
CCRF-CEM leukemia
  TGI: > 100 µM
COLO 205 colon
  TGI: > 100 µM
DLD-1 colon
  TGI: > 100 µM
DMS 273 small cell lung
  TGI: > 100 µM
EKVX NSCLC
  TGI: > 100 µM
HCC-2998 colon
  TGI: > 100 µM
HCT-116 colon
  TGI: > 100 µM
HCT-15 colon
  TGI: > 100 µM
HL-60(TB) leukemia
  TGI: > 100 µM
HOP-18 NSCLC
  TGI: > 100 µM
HOP-62 NSCLC
  TGI: > 100 µM
HT29 colon
  TGI: > 100 µM
IGROV1 ovarian
  TGI: > 100 µM
K-562 leukemia
  TGI: > 100 µM
KM12 colon
  TGI: > 100 µM
KM20L2 colon
  TGI: > 100 µM
LOX IMVI melanoma
  TGI: > 100 µM
LXFL 529 NSCLC
  TGI: > 100 µM
M14 melanoma
  TGI: > 100 µM
M19-MEL melanoma
  TGI: > 100 µM
MALME-3M melanoma
  TGI: > 100 µM
MOLT-4 leukemia
  TGI: > 100 µM
NCI-H226 lung
  TGI: > 100 µM
NCI-H23 lung
  TGI: > 100 µM
NCI-H460 lung
  TGI: > 100 µM
NCI-H522 lung
  TGI: > 100 µM
OVCAR-3 ovarian
  TGI: > 100 µM
OVCAR-4 ovarian
  TGI: > 100 µM
OVCAR-5 ovarian
  TGI: > 100 µM
OVCAR-8 ovarian
  TGI: > 100 µM
RPMI-8226 leukemia
  TGI: > 100 µM
RXF 393 renal
  TGI: > 100 µM
RXF-631 renal
  TGI: > 100 µM
SF-268 CNS
  TGI: > 100 µM
SF-295 CNS
  TGI: > 100 µM
SF-539 CNS
  TGI: > 100 µM
SK-MEL-2 melanoma
  TGI: > 100 µM
SK-MEL-28 melanoma
  TGI: > 100 µM
SK-MEL-5 melanoma
  TGI: > 100 µM
SK-OV-3 ovarian
  TGI: > 100 µM
SN12C renal
  TGI: > 100 µM
SNB-19 CNS
  TGI: > 100 µM
SNB-75 CNS
  TGI: > 100 µM
SNB-78 CNS
  TGI: > 100 µM
SR leukemia
  TGI: > 100 µM
SW-620 colon
  TGI: > 100 µM
TK-10 renal
  TGI: > 100 µM
U251 CNS
  TGI: > 100 µM
UACC-257 melanoma
  TGI: > 100 µM
UACC-62 melanoma
  TGI: > 100 µM
UO-31 renal
  TGI: > 100 µM
XF 498 CNS
  TGI: > 100 µM
